Test results taken from patent US12433855B2, “Method of inhibiting gram-negative bacterial quorum signalling molecules using the macrocycle pillar[5]arene” (AALTO UNIVERSITY FOUNDATION SR, priority 2018, dated 2025).
“Also recorded” adds a separate entry of the source. Values belong to the compound of their own block, whether it stands above or below them.

What was measured:
[1] = Binding of HSLs having carbon chains of different lengths
Pseudomonas aeruginosa = assay: Pyocyanin assay; assay type: cell-based; settings: for production of pyocyanin: 24 hours of growth, OD695
Source text: In testing the functionality of P[5]a as an actual quorum sensing inhibitor a pathogenic Gram-negative bacterium, Pserudomonas aeruginosa, which contains the LasI synthase that produces the 3-oxo-C12 HSL, was used.
P. aeruginosa utilizes multiple quorum sensing systems (Las, Rhl and Pqs). The Las system is at the top of a cascade that leads to the activation of the other quorum sensing systems, and is directly responsible for the production of the green toxin pyocyanin. Pyocyanin is a toxin produced by Pseudomonas aeruginosa, and the production is directly activated by the 3-oxo-C12 HSL. Pyocyanin is responsible for the death of cells in the lung during cystic fibrosis. Thus, the production of this toxin is related directly to the C12 Las AHL signal in a quorum-based response.
Bacterial cells were cultured for 24 hours in Luria Broth (LB) medium with […] added. Then, the culture fluid was separated from the cells and measured at OD695 (this measures the amount of green color).
In a pyocyanin assay, the effect of varying concentrations of a P[5]a (4,9,14,19,24,26,28,30,32,34-Deca[2-(trimethylaminio)ethoxy]hexacyclo[21.2.2.2^3,6.2^8,11.2^13,16.2^18,21]pentatriaconta-1(25),3,5,8,10,13,15,18,20,23,26,28,30,32,34-pentadecaene⋅10bromide, CAS No. 1351445-28-7) on the production of pyocyanin after 24 hours of growth was studied and the results are shown in FIG. 12.

A549 cells [2] = assay: Viability of A549 cells, trypan blue staining; assay type: cell-based, human; settings: different concentrations of P[5]a, with vs without
Protocol: (§1) To assess the possible toxicity of P[5]a on the lung cells, two independent viability tests were performed. First, the viability of A549 cells grown in the presence of different concentrations of P[5]a was determined using trypan blue staining. […] Subsequently, the CellTox Green Cytotoxicity Assay (Promega) was carried out for A549 cells grown with and without P[5]a, in the presence or absence of PAO1 P. aeruginosa strain. […] This was not observed for cells grown with the addition of P[5]a in the growth medium.

A549 cells [3] = assay: CellTox Green Cytotoxicity Assay; assay type: cell-based, human
Protocol: as §1

[4] = test system: A549 cells infected with P. aeruginosa; assay: Gene expression (total RNA) of A549 cells infected with P. aeruginosa; assay type: cell-based, human
Protocol: In order to further study the influence of P[5]a on the eukaryotic cells, total RNA was isolated from A549 cells infected with P. aeruginosa in the presence or absence of 100 nM or 2.5 mM P[5]a. The expression of 46 genes were affected strongly enough to meet our stringent criteria and be considered as differentially expressed during the infection with PAO1.

[5] = Stability and dissolution in water; assay type: physicochemical

- binding to N-acyl-homoserine lactones (AHLs) [1]: found to bind
Compound: O=S(=O)(O)c1cc2c(O)c(c1)Cc1cc(S(=O)(=O)O)cc(c1O)Cc1cc(S(=O)(=O)O)cc(c1O)Cc1cc(S(=O)(=O)O)cc(c1O)C2 [4-sulfocalix[4]arene, 25,26,27,28-Tetrahydroxycalix[4]arene-5,11,17,23-tetrasulfonic acid]

- binding to N-acyl-homoserine lactones (AHLs) [1]: found to bind
Compound: C1COCCOCCOCCOCCO1 [15-crown-5, 1,4,7,10,13-Pentaoxacyclopentadecane]

Compound: C[N+](C)(C)CCOc1cc2c(OCC[N+](C)(C)C)cc1Cc1cc(OCC[N+](C)(C)C)c(cc1OCC[N+](C)(C)C)Cc1cc(OCC[N+](C)(C)C)c(cc1OCC[N+](C)(C)C)Cc1cc(OCC[N+](C)(C)C)c(cc1OCC[N+](C)(C)C)Cc1cc(OCC[N+](C)(C)C)c(cc1OCC[N+](C)(C)C)C2.[Br-].[Br-].[Br-].[Br-].[Br-].[Br-].[Br-].[Br-].[Br-].[Br-] [P[5]a, 4,9,14,19,24,26,28,30,32,34-Deca[2-(trimethylaminio)ethoxy]hexacyclo[21.2.2.2^3,6.2^8,11.2^13,16.2^18,21]pentatriaconta-1(25),3,5,8,10,13,15,18,20,23,26,28,30,32,34-pentadecaene⋅10bromide]
- cellular growth (Pseudomonas aeruginosa; P. aeruginosa culture): not affected at all
- production of pyocyanin (Pseudomonas aeruginosa; higher concentrations of P[5]a): complete inhibition; also recorded: completely inhibit toxin production
- production of pyocyanin (Pseudomonas aeruginosa; no or low concentrations of P[5]a): no significant differences
- viability of A549 cells (trypan blue) (A549 cells [2]): no significant difference
- increase in fluorescence (indicator of cell death) (A549 cells [3]; A549 cells grown with P[5]a, absence of PAO1): not observed
- cell death during infection with PAO1 strain (A549 cells [3]; A549 cells infected with PAO1 P. aeruginosa, P[5]a in growth medium): reduction in cell death in a dose dependent manner
- overexpression of differentially expressed genes during infection ([4]; 100 nM or 2.5 mM P[5]a, PAO1 infection): reduced the overexpression of many of the differentially expressed genes
- expression of CXCL1, CXCL8, CCL20 and ICAM1 ([4]; 100 nM or 2.5 mM P[5]a, PAO1 infection, dose-dependent): significantly reduced
- expression of adrenomodullin (ADM) and colony stimulating factor 2 (CSF2) ([4]; P[5]a added to infected A549 culture): further overexpression
- binding to N-acyl-homoserine lactones (AHLs) [1]: found to bind
- selectivity of AHL binding by chain length [1]: selectively bind long-chained N-acyl-homoserine lactones
- dissolution in water [5]: easily dissolved
- stability [5]: very good stability

- binding to N-acyl-homoserine lactones (AHLs) [1]: found to bind
Compound: OC[C@H]1O[C@@H]2O[C@H]3[C@H](O)[C@@H](O)[C@@H](O[C@H]4[C@H](O)[C@@H](O)[C@@H](O[C@H]5[C@H](O)[C@@H](O)[C@@H](O[C@H]6[C@H](O)[C@@H](O)[C@@H](O[C@H]7[C@H](O)[C@@H](O)[C@@H](O[C@H]1[C@H](O)[C@H]2O)O[C@@H]7CO)O[C@@H]6CO)O[C@@H]5CO)O[C@@H]4CO)O[C@@H]3CO [alpha-cyclodextrin, Alpha-cyclodextrin]

- binding to N-acyl-homoserine lactones (AHLs) [1]: found to bind
Compound: O=C1N2CN3C(=O)N4CN5C(=O)N6CN7C(=O)N8CN9C(=O)N%10CN%11C(=O)N%12CN1C1C2N2CN%13C(=O)N(CN%14C(=O)N(CN%15C(=O)N(CN%16C(=O)N(CN%17C(=O)N(CN1C2=O)C%12C%11%17)C%10C9%16)C8C7%15)C6C5%14)C4C3%13 (stereo not shown) [cucurbit[6]uril, Cucurbit[6]uril hydrate]

- binding to N-acyl-homoserine lactones (AHLs) [1]: found to bind
Compound: OC[C@H]1O[C@@H]2O[C@H]3[C@H](O)[C@@H](O)[C@@H](O[C@H]4[C@H](O)[C@@H](O)[C@@H](O[C@H]5[C@H](O)[C@@H](O)[C@@H](O[C@H]6[C@H](O)[C@@H](O)[C@@H](O[C@H]7[C@H](O)[C@@H](O)[C@@H](O[C@H]8[C@H](O)[C@@H](O)[C@@H](O[C@H]9[C@H](O)[C@@H](O)[C@@H](O[C@H]1[C@H](O)[C@H]2O)O[C@@H]9CO)O[C@@H]8CO)O[C@@H]7CO)O[C@@H]6CO)O[C@@H]5CO)O[C@@H]4CO)O[C@@H]3CO [gamma-cyclodextrin, Gamma-cyclodextrin]

Compound: Resorcin[4]arene
- binding to N-acyl-homoserine lactones (AHLs) [1]: found to bind
